# Experimental data from US8044036B2 (priority 2005, dated 2011).
# Assays:
# Pyricularia oryzae = assay type: cell-based; details: application rate 3 ppm; 5 days incubation in PDB; 100% = no fungal growth
# Septoria tritici = Septoria tritici test (in vitro)/microtitre plates; assay type: cell-based; details: application rate 0.3 ppm; 5 days incubation in PDB; 100% = no fungal growth
smiles,measurement,setting,value
"OC(Cc1ccccc1Cl)(Cn1nc[nH]c1=S)C1(Cl)CC1 (racemic) [prothioconazole, 2-[(2RS)-2-(1-chlorocyclopropyl)-3-(2-chlorophenyl)-2-hydroxy-propyl]-2H-1,2,4-triazole-3(4H)thione]",Efficacy in % found,Pyricularia oryzae,23%
same,Efficacy in % found,Septoria tritici,21%
"C=CCNC(=O)c1c([Si](C)(C)C)sc(C)c1C [silthiofam, N-alkyl-4,5-dimethyl-2-(trimethylsilyl)thiophene-3-carboxamide]",Efficacy in % found,Pyricularia oryzae,29%
same,Efficacy in % found,Septoria tritici,10%
